Results as given in PMC9405596, “Evaluation of the Anti-Leishmania mexicana and -Trypanosoma brucei Activity and Mode of Action of 4,4′-(Arylmethylene)bis(3-methyl-1-phenyl-1H-pyrazol-5-ol)” (Biomedicines, 2022).
“Also recorded” adds a separate entry of the source. Read-outs that look alike come from different tables or passages of the source.

Experiments:
[1] = set-up: method as in PMID 34082794; details: ref [17]; cited from earlier work
[2] = MTT cytotoxicity assay, murine macrophages; format: cell-based; details: mouse, RAW 264.7 macrophage cells, RAW 264.7, 48 h
Method: (§1) Murine macrophages (cell line RAW 264.7, ATCC® TIB-71™) were grown in Dulbecco’s Modified Eagle Medium (DMEM) (Gibco, Invitrogen, Waltham, MA, USA) supplemented with 10% fetal bovine serum (FBS) (Eurobio) and 100 IU/mL penicillin + 100 µg/mL streptomycin (Gibco), at 37 °C, in an atmosphere containing 5% CO2. Human hepatocyte cell line HepG2 (ATCC® HB-8065™) was grown in MEM (Gibco, Invitrogen) supplemented with 10% FBS (Gibco, Invitrogen), 1% NEAA (Gibco, Invitrogen), and 1% L-glutamine (Gibco, Invitrogen). The medium was renewed twice a week. For both cell lines, the viability was determined using the MTT assay as described before for leishmanicidal activity assessment, with some variations. Here, 5 × 10^4 cells/well in a final volume of 100 µL were seeded into a 96-well plate, in triplicate for RAW macrophages and in duplicate for HepG2. Saponin (2.4 mg/mL) and untreated cells were used as positive control and negative control, respectively. Compounds were dissolved in DMSO to obtain different serial concentrations (1.56 to 800 µM) for RAW macrophages and 100–0.001 µM for HepG2. The final concentration of DMSO in each well was 0.5%. After exposure to compounds for 48 h and 72 h for RAW and HepG2 cells, respectively, 10 µL/well of MTT (5 mg/mL in PBS) was added, incubated at 37 °C for 2 h in darkness, and cells were pelleted via centrifugation at 4400 rpm for 10 min. The medium was removed, and 100 µL/well of DMSO was added to dissolve formazan. The absorbance at 570 and 630 nm was recorded following the same procedure as with parasites.

[3] = MTT cytotoxicity assay, HepG2; format: cell-based; details: human, HepG2 cells, HepG2, 72 h, read-out: CC50 HepG2 Hepatocytes
Method: as §1

[4] = tested on: L. mexicana promastigotes; assay: MTT viability assay against L. mexicana promastigotes; format: cell-based, Leishmania mexicana; details: for L. mexicana Promastigote SI vs. Hepatocytes: CC50 HepG2 hepatocytes/IC50 L. mexicana; for IC50: 48 h; for L. mexicana Promastigote SI vs. Macrophage: CC50 RAW macrophages/IC50 L. mexicana
Method: The leishmanicidal activity against promastigotes from L. mexicana was evaluated by measuring parasites’ mitochondrial activity using the MTT (Thiazolyl Blue Tetrazolium Bromide) colorimetric assay as described previously. […] The medium was renewed every third day and subcultures were prepared when parasite density reached 1 × 10^7 parasites/mL. A Neubauer chamber was used to determine parasite density.

[5] = tested on: bloodstream form of T. b. brucei (strain 427); assay: Bioluminescence viability assay against bloodstream T. b. brucei expressing luciferase; details: for T. brucei SI vs. Hepatocytes: CC50 HepG2 hepatocytes/IC50 T. brucei; for T. brucei bloodstream SI vs. Macrophages: CC50 RAW macrophages/IC50 T. brucei; for activity at 10 µM / IC50: 24 h; for activity at 10 µM: read-out: T. brucei bloodstream % Growth (10 µM), 10 µM, 24 h; for SI against T. brucei, range over both mammalian cell lines: murine macrophages and HepG2 hepatocytes
[6] = tested on: hGrx1-roGFP2 redox biosensor in bloodstream T. brucei brucei; assay: In-cell redox assay with hGrx1-roGFP2 biosensor (flow cytometry); details: compound at its IC50, 1 h; for intracellular biosensor oxidation: relative to diamide (full oxidation) and DTT (reduction)
[7] = tested on: recombinant roGFP2 biosensor; assay: In vitro fluorescence assay with recombinant roGFP2 biosensor; format: biochemical; details: 50 µM compound, 5 µM biosensor, 1 h
Method: The His-tagged recombinant form of a roGFP2 biosensor was expressed and purified from Escherichia coli (strain C41). An overnight pre-culture (LB medium + 50 µg/mL kanamycin, 220 rpm at 37 °C) of transformed cells was diluted 1:100 in fresh 2YT medium with 50 µg/mL kanamycin, and grown at 220 rpm and 37 °C until reaching an OD600 of ~0.8. At this time point, the culture was supplemented with IPTG (end concentration 1 mM) and the incubation was extended overnight at 100 rpm, 20 °C. Cells were harvested by centrifugation at 5000× g for 10 min at 4 °C and the cell pellet was resuspended in Buffer A (50 mM sodium phosphate, pH 8.0, 300 mM NaCl) at a ratio of 5 mL buffer per gram of pellet. Lysozyme (50 mg/mL) and DNAse (15 U/mL; Roche) were added to the cell homogenate and the suspension was incubated for 1 h on ice. Next, cells were sonicated for 2 min (30 s on/off pulses at an amplitude of 40%) and the lysate was centrifuged twice at 23,000× g, 4 °C, for 1 h. The clarified supernatant was filtered (0.4 µm filter) and applied to a 5 mL HisTrap column (GE Healthcare, Chicago, IL, USA) pre-equilibrated with Buffer A. The column was washed with 15 mL of Buffer A and then with 15 mL of Buffer A + 20 mM Imidazole. The recombinant protein was eluted from the column with Buffer A + 500 mM Imidazole. The elution fractions containing the biosensor (optical observation) were pooled and buffer exchanged against Buffer A using a PD-10 column (G25-sepharose, GE Healthcare). In order to remove the His-tag, the recombinant protein was digested overnight (4 °C) using 4.5 mg/mL TEV protease in Buffer A containing 5 mM DTT and 2 mM EDTA. Finally, the digested sample was applied to a 5 mL HisTrap column pre-equilibrated with Buffer A, and the flow-through containing the un-tagged biosensor was collected. The purity of the recombinant biosensor was evaluated by SDS-PAGE, and the protein concentration estimated by measuring absorbance at 280 nm (ε^280 23.290 M^−1cm^−1) in a Nanodrop DS-11 FX device. Upon purification, the biosensor was obtained in an oxidized state, as assessed via spectrofluorimetry (see below).
For the fluorescence assays, the recombinant biosensor was used at a final concentration of 5 µM and compounds at 50 µM in Buffer A with DMSO (final concentration 1%). DTT was added at 10 mM for achieving full biosensor reduction. Fluorescence spectra ([…] and emission) were recorded using a Cary Eclipse equipment. […]

bloodstream T. b. brucei = assay: Microscopic observation of cell motility; format: cell-based, Trypanosoma brucei brucei; details: 0.9 µM, 24 h, vs vehicle-treated parasites
[8] = tested on: Human hepatocyte cell line HepG2; details: read-out: CC50 HepG2 Hepatocytes, ref [47]; cited from earlier work
[9] = Leishmania mexicana, read-out: L. mexicana Promastigote IC50, promastigotes, 48 h, MTT
[10] = Trypanosoma brucei, read-out: T. brucei bloodstream IC50, 24 h, bioluminescence
[11] = read-out: T. brucei bloodstream IC50, bioluminescence
[12] = read-out: L. mexicana Promastigote IC50, promastigotes, MTT

Row | Structure (SMILES) | CC50 at 48 h [2] [µM] | CC50 at 72 h [3] [µM] | L. mexicana Promastigote SI vs. Hepatocytes [4] | IC50 [4, 9] [µM] | T. brucei SI vs. Hepatocytes [5] | T. brucei bloodstream SI vs. Macrophages [5] | activity at 10 µM ([5]; Trypanosoma brucei) [%] | IC50 [5, 10] [µM] | intracellular biosensor oxidation [6] [%] | biosensor oxidation vs. DMSO [6] [%] | direct oxidation of the reduced recombinant biosensor [7] | prevention of biosensor oxidation (oxidized form) [7] | L. mexicana Promastigote SI vs. Macrophage [4] | also measured
1 | Cc1nn(-c2ccccc2)c(O)c1C(c1ccc(O)c(O)c1)c1c(C)nn(-c2ccccc2)c1O [Compound 2n] | 70 ± 7 | > 100 | >14.3 | 7 ± 1 | >9.8 | 7 | ≤ 50 | 10 |  |  |  |  |  | radical scavenging activity relative to ascorbic acid [1]: higher; IC50 [5, 11]: 10.2 ± 1.75 µM
2 | Cc1nn(-c2ccccc2)c(O)c1C(c1ccc(C(F)(F)F)cc1)c1c(C)nn(-c2ccccc2)c1O [Compound 2r] | 54 ± 3 | 20 ± 4 | 6.1 |  | 2.0 | 5.4 | ≤ 50 | 10 ± 3 | 56 | 23 | did not induce direct oxidation | 11–13% | 16.4 | radical scavenging activity relative to ascorbic acid [1]: higher
3 | Cc1nn(-c2ccccc2)c(O)c1C(c1ccccc1C(F)(F)F)c1c(C)nn(-c2ccccc2)c1O [Compound 2v, 4,4′-[(2-trifluoromethylphenyl)methylene]bis(3-methyl-1-phenyl-1H-pyrazol-5-ol)] | 91 ± 18 | 21 ± 2 | 3.5 | ≤ 10 |  |  |  |  |  |  |  |  | 15.1 | melting point: 245 to 248 °C; IC50 [4, 12]: 6 ± 1 µM; anti-T. brucei activity in preliminary screening, in words ([5]; 10 µM): inactive; also recorded: lacked activity
4 | Cc1nn(-c2ccccc2)c(O)c1C(c1cccc(C(F)(F)F)c1)c1c(C)nn(-c2ccccc2)c1O [Compound 2w, 4,4′-[(3-trifluoromethylphenyl)methylene]bis(3-methyl-1-phenyl-1H-pyrazol-5-ol)] | 61 ± 4 | 26 ± 3 | 6.5 |  | 2.9 | 6.8 | ≤ 50 | 9 | 63 | 30 | did not induce direct oxidation | 11–13% | 15.2 | IC50 [5, 11]: 8.9 ± 0.7 µM
5 | Cc1nn(-c2ccccc2)c(O)c1C(c1cc(C(F)(F)F)cc(C(F)(F)F)c1)c1c(C)nn(-c2ccccc2)c1O [Compound 2x, 4,4′-{[3,5-bis(trifluoromethyl)phenyl]methylene}bis(3-methyl-1-phenyl-1H-pyrazol-5-ol)] | 34 ± 5 | 30 ± 2 | 4.3 | ≤ 10 | 16 | 18 |  | 1.9 ± 0.9 | 95 | 63 | did not induce direct oxidation | 11–13% | 4.8 | IC50 [4, 12]: 7 ± 2 µM; SI against T. brucei, range over both mammalian cell lines [5]: 11.6–18
6 | Cc1nn(-c2ccccc2)c(O)c1C(c1ccc(O)cc1O)c1c(C)nn(-c2ccccc2)c1O [Compound 2y, 4,4′-[(2,4-dihydroxyphenyl)methylene]bis(3-methyl-1-phenyl-1H-pyrazol-5-ol)] | 170 ± 1 | > 100 |  | > 50 | >111 | 189 |  | 0.9 ± 0.2 |  |  |  |  |  | cell motility by microscopic observation (bloodstream T. b. brucei): did not reveal an impairment of cell motility
7 | CC1CS(=O)(=O)CCN1/N=C/c1ccc([N+](=O)[O-])o1 (stereo not shown) [Nifurtimox, reference compound] | > 100 |  |  |  | 13 |  |  | 3.5 |  |  |  |  |  | CC50 [8]: 45 ± 1 µM; SI against T. brucei, range over both mammalian cell lines [5]: 13–28.5
